# Target: human PDE4D catalytic domain (Homo sapiens (Human), UniProt Q08499)
# Experiment: PDE4 Assay (TR-FRET, FAM-cAMP cleavage)
# Type: biochemical
# Settings: Table 17, Examples 297-316; read-out: PDE4 IC50 range
# Protocol: The human PDE4D catalytic domain (UniProt no. Q08499 [S380-L740]) was incubated with a mixture of non-labelled cAMP (cyclic adenosine monophosphate) and fluorescein amidite (FAM) conjugated cAMP and titrated test or reference Compound. Following brief incubation the enzymatic reaction was stopped by addition of binding buffer containing nanoparticles with immobilized trivalent metal ions capable of binding 1) AMP phospho groups and 2) terbium (Tb) donor fluorophores. Subsequent excitation of the Tb donor triggers time-resolved FRET to adjacent FAM acceptor molecules resulting in light emission. In the presence of a PDE4 inhibitor, AMP generation was reduced resulting in a lower fluorescence signal. The cAMP phosphodiester is not bound by the detection system.
# The results were calculated as the molar concentrations resulting in 50% inhibition of the substrate cleavage compared to controls samples, and are expressed as a range of IC50 (nM).
# Chain of human PDE4D catalytic domain (Q08499 380-740): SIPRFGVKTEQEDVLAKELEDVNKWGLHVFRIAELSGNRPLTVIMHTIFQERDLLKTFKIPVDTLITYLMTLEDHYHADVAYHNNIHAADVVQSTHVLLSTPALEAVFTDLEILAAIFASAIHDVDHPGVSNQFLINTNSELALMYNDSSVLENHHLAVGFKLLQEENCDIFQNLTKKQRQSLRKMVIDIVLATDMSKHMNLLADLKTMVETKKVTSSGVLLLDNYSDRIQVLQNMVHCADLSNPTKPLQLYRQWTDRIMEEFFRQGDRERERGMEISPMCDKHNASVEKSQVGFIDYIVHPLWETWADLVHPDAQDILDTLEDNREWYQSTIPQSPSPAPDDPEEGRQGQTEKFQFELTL
row,SMILES,IC50 [nM]
1,"CCn1nc(CC(C)(C)COC(=O)c2ccns2)c2c1C(=O)NCC1(CCOCC1)C2 [Example 303, [3-(1-ethyl-8-oxo-spiro[6,7-dihydro-4H-pyrazolo[3,4-c]azepine-5,4′-tetrahydro-pyran]-3-yl)-2,2-dimethyl-propyl] isothiazole-5-carboxylate]",< 100

# Same assay, conditions: human PDE4D catalytic domain (UniProt Q08499 [S380-L740]); 50% inhibition of substrate cleavage; read-out: PDE4 IC50 range
row,SMILES,IC50 [nM]
1,"CCn1nc(CCCOC(=O)c2ccc(C(=O)N(C)C)cc2)c2c1C(=O)NCC1(CCOCC1)C2 [Example 106, 3-(1-ethyl-8-oxo-spiro[6,7-dihydro-4H-pyrazolo[3,4-c]azepine-5,4′-tetrahydro-pyran]-3-yl)propyl 4-(dimethylcarbamoyl)benzoate]",< 100
2,"CCn1nc(CCCOC(=O)c2cc(OC)cc(C(F)(F)F)c2)c2c1C(=O)NCC1(CCOCC1)C2 [Example 82, 3-(1-ethyl-8-oxo-spiro[6,7-dihydro-4H-pyrazolo[3,4-c]azepine-5,4′-tetrahydropyran]-3-yl)propyl 3-methoxy-5-(trifluoromethyl)benzoate]",< 100
3,"CCn1nc(CC(C)(C)COC(=O)c2ccc(S(C)(=O)=O)cc2)c2c1C(=O)NCC1(CCOCC1)C2 [Example 202, [3-(1-ethyl-8-oxo-spiro[6,7-dihydro-4H-pyrazolo[3,4-c]azepine-5,4′-tetrahydropyran]-3-yl)-2,2-dimethyl-propyl] 4-methylsulfonylbenzoate]",< 100
4,"CCn1nc(CCCOC(=O)c2ccc(C)cc2)c2c1C(=O)NCC1(CCOCC1)C2 [Example 8, 3-(1-ethyl-8-oxo-spiro[6,7-dihydro-4H-pyrazolo[3,4-c]azepine-5,4′-tetrahydropyran]-3-yl)propyl 4-methylbenzoate]",< 100
5,"CCn1nc(CCCOC(=O)c2ccc(C(F)(F)F)cc2F)c2c1C(=O)NCC1(CCOCC1)C2 [Example 70, 3-(1-ethyl-8-oxo-spiro[6,7-dihydro-4H-pyrazolo[3,4-c]azepine-5,4′-tetrahydro-pyran]-3-yl)propyl 2-fluoro-4-(trifluoromethyl)benzoate]",< 100
6,"CCn1nc(CCCOC(=O)c2cscn2)c2c1C(=O)NCC1(CCOCC1)C2 [Example 244, 3-(1-ethyl-8-oxo-spiro[6,7-dihydro-4H-pyrazolo[3,4-c]azepine-5,4′-tetrahydropyran]-3-yl)propyl thiazole-4-carboxylate]",< 100
7,"CCn1nc(CC(C)(C)COC(=O)c2ccc(C(=O)N3CCN(C)CC3)cc2)c2c1C(=O)NCC1(CCOCC1)C2 [Example 224, [3-(1-ethyl-8-oxo-spiro[6,7-dihydro-4H-pyrazolo[3,4-c]azepine-5,4′-tetrahydro-pyran]-3-yl)-2,2-dimethyl-propyl] 4-(4-methyl-piperazine-1-carbonyl)-benzoate]",< 100
8,"CCn1nc(CC(C)(C)COC(=O)[C@H]2CC[C@H](O)CC2)c2c1C(=O)NCC1(CCOCC1)C2 [Example 194, [3-(1-ethyl-8-oxo-spiro[6,7-dihydro-4H-pyrazolo[3,4-c]azepine-5,4′-tetrahydropyran]-3-yl)-2,2-dimethyl-propyl] 4-hydroxycyclohexane-carboxylate]",< 100
9,"CCn1nc(CCCOC(=O)c2ccc(F)c(C#N)c2)c2c1C(=O)NCC1(CCOCC1)C2 [Example 30, 3-(1-ethyl-8-oxo-spiro[6,7-dihydro-4H-pyrazolo[3,4-c]azepine-5,4′-tetrahydropyran]-3-yl)propyl 3-cyano-4-fluoro-benzoate]",< 100
10,"CCn1nc(C[C@@H](C)COC(=O)c2cccc(C(N)=O)c2)c2c1C(=O)NCC1(CCOCC1)C2 [Example 178, [(2R)-3-(1-ethyl-8-oxo-spiro[6,7-dihydro-4H-pyrazolo[3,4-c]azepine-5,4′-tetrahydropyran]-3-yl)-2-methyl-propyl] 3-carbamoylbenzoate]",< 100
11,"CCn1nc(CC(C)(C)COC(=O)c2ccc(OC)cc2)c2c1C(=O)NCC1(CCOCC1)C2 [Example 197, [3-(1-ethyl-8-oxo-spiro[6,7-dihydro-4H-pyrazolo[3,4-c]azepine-5,4′-tetrahydropyran]-3-yl)-2,2-dimethyl-propyl] 4-methoxybenzoate]",< 100
